The values below come from US11202748B2, “Photoprotective compositions containing malassezia-derived compounds and/or chemical analogs thereof” (Versicolor Technologies, LLC, priority 2018, dated 2021).

The subject of experiment [1] is MeWo, WM115 and B16F1 cell lines. The following applies: expected result.
Description: The cell lines MeWo (ATCC® HTB-65™), WM115 (ATCC® CRL-1675) and B16F1 (ATCC® CRL-6323) are maintained in the following culture media: culture medium for MeWo and B16F1: DMEM supplemented with 10% FBS; culture medium for WM115: RPMI 1640 supplemented with 10% FBS.
Cells are harvested and the cell number determined using a Countess Cell Counter. The cells are diluted with culture medium to the desired density. The final cell density may be, for example, 4,000 cells/well for 6 hr and 24 hr treatment, and 2,000 cells/well for 48 hr and 72 hr treatment. For the Annexin V assay, 384-well clear-bottom plates (Corning 3712) are employed, whereas 384-well solid white-bottom plates (Corning 3570) are used for the Caspase-Glo assays. All plates are covered with a lid and placed at 37° C. and 5% CO2 overnight for cell attachment.
Test compounds are dissolved in DMSO to 30 mM stock. 10-fold dilutions are performed to generate 3 mM and 0.3 mM concentrations. […]
For the Annexin V assay, plates are removed from the incubator and culture media is removed. […] Plates are read using ImageXpress Nano.
For the Caspase-Glo assay, plates are removed from the incubator and equilibrated at room temperature for 15 minutes. […] Plates are incubated at room temperature for 15 minutes and read using EnSpire™ plate reader. Fold induction is calculated according to the following formula: Fold induction=LumSample/LumNC.
For experiment [2] the following is noted: expected result.
Description: For the CellTiter-Glo assay, test compounds are prepared in 10 mM DMSO solution. Compounds are serially diluted into 12 concentrations. 40 uL of cells from a 100,000 cell/mL suspension are dispensed into each well of a 384-well plate (Corning 3570). Plates are incubated overnight at 37° C., 5% CO2, and 95% humidity. Test compounds are added, with DMSO as vehicle control. Plates are incubated at 37° C., 5% CO2, and 95% humidity for 6, 24, or 48 hours, and 40 uL of CellTiter-Glo reagent is added to the wells to assess cell viability.
The next experiment has as its system B16 melanocytes. The following applies: expected result.
Experiment [3] deals with arylhydrocarbon receptor (AhR). The note with it: cited from earlier work.
Experiment [4] has as its target arylhydrocarbon receptor (AhR) (Homo sapiens, UniProt P35869). The note with it: expected result. As for the experimental part:
Cultivated cells are rinsed with 5 mL PBS. […] Trypsin is inactivated by adding excess serum-containing media.
Cells are resuspended in seeding media at a proper density.
Compound solutions are transferred into the assay plate using Echo550. The plate is then placed back into the incubator for compound treatment.
Afterward, stock solutions of test compounds, test compositions, and omeprazole positive control are prepared. Compound and compositions solutions are transferred into the assay plate using Echo550. The plate is then placed back into the incubator for compound/composition treatment.

Sequence of arylhydrocarbon receptor (AhR) (Homo sapiens, UniProt P35869) (P35869 11-848): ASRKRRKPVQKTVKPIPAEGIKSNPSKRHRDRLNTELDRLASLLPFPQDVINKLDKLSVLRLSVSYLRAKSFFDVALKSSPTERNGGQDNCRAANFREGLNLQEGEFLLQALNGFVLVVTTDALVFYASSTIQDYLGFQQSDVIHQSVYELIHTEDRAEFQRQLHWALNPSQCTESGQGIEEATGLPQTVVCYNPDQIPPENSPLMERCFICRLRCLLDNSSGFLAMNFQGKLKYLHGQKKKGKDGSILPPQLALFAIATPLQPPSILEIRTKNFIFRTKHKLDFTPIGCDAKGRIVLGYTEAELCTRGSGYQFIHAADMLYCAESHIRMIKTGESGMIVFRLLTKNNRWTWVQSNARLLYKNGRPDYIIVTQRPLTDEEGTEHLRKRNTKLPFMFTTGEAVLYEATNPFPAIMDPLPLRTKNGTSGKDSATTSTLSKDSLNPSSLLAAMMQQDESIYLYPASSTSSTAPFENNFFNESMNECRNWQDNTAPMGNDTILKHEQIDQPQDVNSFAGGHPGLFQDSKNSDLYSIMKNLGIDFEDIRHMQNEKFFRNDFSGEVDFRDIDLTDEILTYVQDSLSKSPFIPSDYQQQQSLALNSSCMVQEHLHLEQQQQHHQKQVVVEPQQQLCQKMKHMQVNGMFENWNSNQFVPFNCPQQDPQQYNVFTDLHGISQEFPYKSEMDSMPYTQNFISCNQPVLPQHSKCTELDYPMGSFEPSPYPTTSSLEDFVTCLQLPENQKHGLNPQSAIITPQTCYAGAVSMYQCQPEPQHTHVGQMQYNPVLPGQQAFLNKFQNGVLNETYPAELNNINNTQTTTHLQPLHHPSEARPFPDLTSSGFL
Description for B16 melanocytes: Plating media will include DMEM without L-glutamine, FBS, penicillin/streptomycin, and L-glutamine. Assay media will include DMEM without phenol red and L-glutamine, FBS, penicillin/streptomycin, L-glutamine, and aMSH. Other reagents will include Kojic Acid, DMSO, and MTT. Cells tested will be B16 cells (ATCC CRL-6475).
B16 Melanocytes are cultured until 70% confluent and harvested. Cells are seeded in 96-well plates at a density of 4000 cells/well and are allowed to attach overnight. The following day, test articles and controls are diluted in B16 Assay media. Overnight media is aspirated and 200 ul of test articles and controls are applied. Cells are incubated at 37° C. and 10% CO2 for 72 hours. Following 72-hour incubation, absorbance is read at 540 nm. Media is removed and replaced with 100 ul of plating media containing 1 mg/mL MTT and incubated for 2 hours at 37° C. and 10% CO2. MTT media is removed and replaced with 200 ul of 95% Ethanol/5% Isopropanol and allowed to shake for 15 minutes. MTT absorbance then is read at 570 nm.
B16 Melanocytes are cultured until 70% confluent and harvested. Cells are seeded in 96-well plates at a density of 4000 cells/well and are allowed to attach overnight. The following day, test articles, test compositions, and controls are diluted in B16 Assay media. […] Following 72-hour incubation, absorbance is read at 540 nm. […] MTT absorbance then is read at 570 nm.

In the case of `O=C1Nc2ccccc2/C1=C1/Nc2ccccc2C1=O` [Indirubin], the “cell death / apoptosis induction” value in experiment [1] is recorded as “will induce cell death”. Further, the “cell death (cell viability)” value in experiment [2] is recorded as “will induce cell death”. For the same compound, in the experiment with B16 melanocytes, the melanogenesis inhibition entry is “will inhibit melanogenesis”. Besides, in experiment [3], the AhR agonist activity entry is “known agonist”. Besides, the AhR activity modulation entry in experiment [4] is recorded as “will modulate AhR activity”.

On to `O=Cc1c(Cc2c[nH]c3ccccc23)[nH]c2ccccc12` [Malassezin, 2-(1H-indol-3-ylmethyl)-1H-indole-3-carbaldehyde], for which the AhR agonist activity entry in experiment [3] is recorded as “known agonist”.
